In patent US12642771B2, “Compositions comprising PGI2-receptor agonists and processes for the preparation thereof” (Arena Pharmaceuticals, Inc., priority 2017, dated 2026):

Test: Release (dissolution) profile of capsules, USP Apparatus 2 (paddle) at 50 rpm, 500 mL aqueous sodium phosphate 0.05 M, pH 6.8
Type: physicochemical
Settings: for Release rate (percentage of Compound 1 released): Table 3b, capsule 0.04 mg Compound 1, Poloxamer 188:food grade GMS 50:50
From the text: USP Apparatus 2 (Paddle Apparatus) is described, for example, in the United States Pharmacopeial Convention, Feb. 1, 2012, Chapter <711> (“Dissolution”), incorporated by reference herein in its entirety. See http://www.usp.org/sites/default/files/usp_pdf/EN/USPNF/revisions/m99470-gc_711.pdf. The assembly from Apparatus 1 is used, except that a paddle formed from a blade and a shaft is used as the stirring element. The shaft is positioned so that its axis is not more than 2 mm from the vertical axis of the vessel at any point and rotates smoothly without significant wobble that could affect the results. The vertical center line of the blade passes through the axis of the shaft so that the bottom of the blade is flush with the bottom of the shaft. A distance of 25±2 mm between the bottom of the blade and the inside bottom of the vessel is maintained during the test. The metallic or suitably inert, rigid blade and shaft comprise a single entity. A suitable two-part detachable design may be used provided the assembly remains firmly engaged during the test. The paddle blade and shaft may be coated with a suitable coating so as to make them inert. The dosage unit is allowed to sink to the bottom of the vessel before rotation of the blade is started. A small, loose piece of nonreactive material, such as not more than a few turns of wire helix, may be attached to dosage units that would otherwise float. Other validated sinker devices may be used.
Unless otherwise specified, the release profiles for capsules were measured using USP Apparatus 2 (paddle).
All release profiles disclosed in Tables 3c-3p were measured with USP Apparatus 2 (paddle) at 50 rpm in 500 mL of aqueous sodium phosphate at a concentration of 0.05 M (pH=6.8). The values in a given table relate to capsules obtained from the same batch. Values shown represent mean values over a number of dissolution tests (“n” in each table) in each case.

For `O=C(O)COC[C@H]1CC[C@H](COC(=O)N(c2ccccc2)c2ccc(Cl)cc2)CC1` [Compound 1, 2-(((1r,4r)-4-(((4-chlorophenyl)(phenyl)carbamoyloxy)methyl)cyclohexyl)methoxy)acetic acid], the “change of release rate after storage” value (0.04 mg Compound 1 in Gelucire 50/13, storage at 40° C. and 75% RH for two weeks (FIG. 5)) was “rapid increase in release rate”, the “Release rate (percentage of Compound 1 released)” value (1 wk storage (40° C.), 30 min) was 11.1% and the “Release rate (percentage of Compound 1 released)” value (1 wk storage (40° C.), 60 min) was 22.6%. For the same compound, the “Release rate (percentage of Compound 1 released)” value (1 wk storage (40° C.), 120 min) was 40.1%, the “Release rate (percentage of Compound 1 released)” value (1 wk storage (40° C.), 180 min) was 59.7% and the “Release rate (percentage of Compound 1 released)” value (1 wk storage (40° C.), 240 min) was 71.8%. The “Release rate (percentage of Compound 1 released)” value (1 wk storage (40° C.), 360 min) was 88.4%, the “Release rate (percentage of Compound 1 released)” value (1 wk storage (40° C.), 480 min) was 92.2% and the “Release rate (percentage of Compound 1 released)” value (1 wk storage (40° C.), 600 min) was 96.7%. For the same compound, the “Release rate (percentage of Compound 1 released)” value (1 wk storage (40° C.), 720 min) was 95.3%, the “Release rate (percentage of Compound 1 released)” value (1 wk storage (40° C.), 735 min) was 96.1% and the “Release rate (percentage of Compound 1 released)” value (2 wks storage (40° C.), 30 min) was 10.8%. The “Release rate (percentage of Compound 1 released)” value (2 wks storage (40° C.), 60 min) was 18.3%, the “Release rate (percentage of Compound 1 released)” value (2 wks storage (40° C.), 120 min) was 36.8% and the “Release rate (percentage of Compound 1 released)” value (2 wks storage (40° C.), 180 min) was 52.9%. For the same compound, the “Release rate (percentage of Compound 1 released)” value (2 wks storage (40° C.), 240 min) was 67.4%, the “Release rate (percentage of Compound 1 released)” value (2 wks storage (40° C.), 360 min) was 83.3% and the “Release rate (percentage of Compound 1 released)” value (2 wks storage (40° C.), 480 min) was 90.3%. For the same compound, the “Release rate (percentage of Compound 1 released)” value (2 wks storage (40° C.), 600 min) was 93.8%, the “Release rate (percentage of Compound 1 released)” value (2 wks storage (40° C.), 720 min) was 93.7% and the “Release rate (percentage of Compound 1 released)” value (2 wks storage (40° C.), 735 min) was 94.3%. For the same compound, the “Release rate (percentage of Compound 1 released)” value (4 wks storage (40° C.), 30 min) was 7.3%, the “Release rate (percentage of Compound 1 released)” value (4 wks storage (40° C.), 60 min) was 17.7% and the “Release rate (percentage of Compound 1 released)” value (4 wks storage (40° C.), 120 min) was 37.4%. The “Release rate (percentage of Compound 1 released)” value (4 wks storage (40° C.), 180 min) was 54.6%, the “Release rate (percentage of Compound 1 released)” value (4 wks storage (40° C.), 240 min) was 70.3% and the “Release rate (percentage of Compound 1 released)” value (4 wks storage (40° C.), 360 min) was 87.5%. For the same compound, the “Release rate (percentage of Compound 1 released)” value (4 wks storage (40° C.), 480 min) was 90.9%, the “Release rate (percentage of Compound 1 released)” value (4 wks storage (40° C.), 600 min) was 93.2% and the “Release rate (percentage of Compound 1 released)” value (4 wks storage (40° C.), 720 min) was 95.0%. The “Release rate (percentage of Compound 1 released)” value (4 wks storage (40° C.), 735 min) was 94.3%, the “Release rate (percentage of Compound 1 released)” value (18 hrs curing (50° C.), 30 min) was 14.3% and the “Release rate (percentage of Compound 1 released)” value (18 hrs curing (50° C.), 60 min) was 21.8%. The “Release rate (percentage of Compound 1 released)” value (18 hrs curing (50° C.), 120 min) was 39.9% and the “Release rate (percentage of Compound 1 released)” value (18 hrs curing (50° C.), 180 min) was 56.3%.
